These are literature values, as cited in patent US9060929B2, “Alprostadil for treatment of premature ejaculation” (Nexmed Holdings, Inc., priority 2003, dated 2015).

Where two headings read alike, the source gives them in different places.

Data set [1] deals with men with premature ejaculation and/or erectile dysfunction.
Another data set relates to patients with PE. To be noted: 6 months.

For the compound `CNCCC(Oc1ccc(C(F)(F)F)cc1)c1ccccc1` (stereo not shown) [fluoxetine], the latency to ejaculation entry is on record as “increased significantly” in data set [1] (PE and PE+ED group taken together, p=0.007); “increased significantly” in data set [1] (PE+ED group, p=0.03).

Turning to `CN[C@H]1CC[C@@H](c2ccc(Cl)c(Cl)c2)c2ccccc21` [sertraline], the “ejaculation latency after treatment” value is 247.2 s with patients with PE (PE group, 50 mg sertraline four hours before sex) and 111.6 s in the data set with patients with PE (PE+ED group (sildenafil-treated), 50 mg sertraline).
